Laboratory results published in patent publication US12655116B2, “Substituted isophthalic acid diamides” (Bayer Aktiengesellschaft, priority 2020, dated 2026).

How the values were obtained:
ABUTH [1] = experiment: Pre-emergence herbicidal action against ABUTH; assay type: in vivo, Abutilon theophrasti; conditions: Abutilon theophrasti, 504 h; for pest or weed control at 80 g/ha: scored visually after 3 weeks vs untreated controls (100% = plants have died, 0% = like control plants); for pest or weed control at 20 g/ha: dosage 20 g/ha, scored visually after 3 weeks vs untreated controls, 100% = plants have died, 0% = like control plants, read-out: Pre-emergence action against ABUTH (herbicidal activity in percent)
How it was run: (§1)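 Greenhouse pots of sandy loam held seeds covered with soil, onto which the compound was applied before emergence. An aqueous suspension or emulsion of WP or EC was used at 600 to 800 l/ha with 0.2% wetting agent. Percent damage was judged visually at 3 weeks.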

ALOMY [2] = experiment: Pre-emergence herbicidal action against ALOMY; assay type: in vivo, Alopecurus myosuroides; conditions: Alopecurus myosuroides, 504 h, pre-emergence; for pest or weed control at 80 g/ha: scored visually after 3 weeks vs untreated controls (100% = plants have died, 0% = like control plants)
How it was run: as §1

AMARE [3] = experiment: Pre-emergence herbicidal action against AMARE; assay type: in vivo, Amaranthus retroflexus; conditions: Amaranthus retroflexus, 504 h, scored visually after 3 weeks vs untreated controls, 100% = plants have died, 0% = like control plants
How it was run: as §1

AVEFA [4] = experiment: Pre-emergence herbicidal action against AVEFA; assay type: in vivo, Avena fatua; conditions: Avena fatua, 504 h, pre-emergence
How it was run: as §1

ECHCG [5] = experiment: Pre-emergence herbicidal action against ECHCG; assay type: in vivo, Echinochloa crus-galli; conditions: Echinochloa crus-galli, 504 h, 80 g/ha
How it was run: as §1

HORMU = experiment: Pre-emergence herbicidal action against HORMU; assay type: in vivo, Hordeum murinum; conditions: Hordeum murinum, 504 h; 80 g/ha, pre-emergence
How it was run: as §1

MATIN [6] = experiment: Pre-emergence herbicidal action against MATIN; assay type: in vivo, Matricaria inodora; conditions: Tripleurospermum inodorum, 504 h; for pest or weed control at 20 g/ha: dosage 20 g/ha; for pest or weed control at 80 g/ha: dosage 80 g/ha
How it was run: as §1

PHBPU [7] = experiment: Pre-emergence herbicidal action against PHBPU; assay type: in vivo, Pharbitis purpurea; conditions: Ipomoea purpurea, 504 h, dosage 80 g/ha
How it was run: as §1

SETVI [8] = experiment: Pre-emergence herbicidal action against SETVI; assay type: in vivo, Setaria viridis; conditions: Setaria viridis, 504 h; for pest or weed control at 20 g/ha: dosage 20 g/ha; for pest or weed control at 80 g/ha: dosage 80 g/ha
How it was run: as §1

STEME [9] = experiment: Pre-emergence herbicidal action against STEME; assay type: in vivo, Stellaria media; conditions: Stellaria media, 504 h, dosage 80 g/ha
How it was run: as §1

VERPE [10] = experiment: Pre-emergence herbicidal action against VERPE; assay type: in vivo, Veronica persica; conditions: Veronica persica, 504 h; for pest or weed control at 20 g/ha: dosage 20 g/ha; for pest or weed control at 80 g/ha: dosage 80 g/ha
How it was run: as §1

VIOTR [11] = experiment: Pre-emergence herbicidal action against VIOTR; assay type: in vivo, Viola tricolor; conditions: Viola tricolor, 504 h; for pest or weed control at 80 g/ha: dosage 80 g/ha
How it was run: as §1

DIGSA [12] = experiment: Pre-emergence herbicidal action against DIGSA; assay type: in vivo, Digitaria sanguinalis; conditions: Digitaria sanguinalis, 504 h; for pest or weed control at 20 g/ha: dosage 20 g/ha; for pest or weed control at 80 g/ha: dosage 80 g/ha
How it was run: as §1

ABUTH [13] = experiment: Post-emergence herbicidal action against ABUTH; assay type: in vivo, Abutilon theophrasti; conditions: Abutilon theophrasti, 504 h, visual assessment about 3 weeks after treatment vs untreated controls; for pest or weed control at 5 g/ha: dosage 5 g/ha; for pest or weed control at 20 g/ha: dosage 20 g/ha
How it was run: (§2)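 Foliar application at one-leaf stage of formulated test compounds, aqueous spray at 600–800 l/ha with 0.2% wetting agent. Greenhouse, optimal conditions, ~3 weeks; damage scored visually in % relative to untreated plants.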

ALOMY [14] = experiment: Post-emergence herbicidal action against ALOMY; assay type: in vivo, Alopecurus myosuroides; conditions: Alopecurus myosuroides, 504 h, visual assessment about 3 weeks after treatment vs untreated controls; for pest or weed control at 20 g/ha: dosage 20 g/ha
How it was run: as §2

AMARE [15] = experiment: Post-emergence herbicidal action against AMARE; assay type: in vivo, Amaranthus retroflexus; conditions: Amaranthus retroflexus, 504 h, 20 g/ha, visual assessment about 3 weeks after treatment, 100% = plants have died, 0% = like control plants
How it was run: as §2

ECHCG [16] = experiment: Post-emergence herbicidal action against ECHCG; assay type: in vivo, Echinochloa crus-galli; conditions: Echinochloa crus-galli, 504 h; for pest or weed control at 20 g/ha: dosage 20 g/ha
How it was run: as §2

LOLRI [17] = experiment: Post-emergence herbicidal action against LOLRI; assay type: in vivo, Lolium rigidum; conditions: Lolium rigidum, 504 h, dosage 20 g/ha
How it was run: as §2

PHBPU [18] = experiment: Post-emergence herbicidal action against PHBPU; assay type: in vivo, Pharbitis purpurea; conditions: Ipomoea purpurea, 504 h; for pest or weed control at 20 g/ha: dosage 20 g/ha
How it was run: as §2

SETVI [19] = experiment: Post-emergence herbicidal action against SETVI; assay type: in vivo, Setaria viridis; conditions: Setaria viridis, 504 h; for pest or weed control at 5 g/ha: dosage 5 g/ha; for pest or weed control at 20 g/ha: dosage 20 g/ha
How it was run: as §2

STEME [20] = experiment: Post-emergence herbicidal action against STEME; assay type: in vivo, Stellaria media; conditions: Stellaria media, 504 h, 20 g/ha
How it was run: as §2

VERPE [21] = experiment: Post-emergence herbicidal action against VERPE; assay type: in vivo, Veronica persica; conditions: Veronica persica, 504 h
How it was run: as §2

VIOTR [22] = experiment: Post-emergence herbicidal action against VIOTR; assay type: in vivo, Viola tricolor; conditions: Viola tricolor, 504 h
How it was run: as §2

DIGSA [23] = experiment: Post-emergence herbicidal action against DIGSA; assay type: in vivo, Digitaria sanguinalis; conditions: Digitaria sanguinalis, 504 h, 20 g/ha
How it was run: as §2

LOLRI [24] = experiment: Pre-emergence herbicidal action against LOLRI; assay type: in vivo, Lolium rigidum; conditions: Lolium rigidum, 504 h, 80 g/ha
How it was run: as §1

POLCO = experiment: Pre-emergence herbicidal action against POLCO; assay type: in vivo, Polygonum convolvulus; conditions: Fallopia convolvulus, 504 h, dosage 80 g/ha
How it was run: as §1

AVEFA [25] = experiment: Post-emergence herbicidal action against AVEFA; assay type: in vivo, Avena fatua; conditions: Avena fatua, 504 h, visual assessment about 3 weeks after treatment, 100% = plants have died, 0% = like control plants
How it was run: as §2

MATIN [26] = experiment: Post-emergence herbicidal action against MATIN; assay type: in vivo, Matricaria inodora; conditions: Tripleurospermum inodorum, 504 h
How it was run: as §2

[27] = 20 g/ha, scored visually after 3 weeks, 100% = plants have died, 0% = like control plants

Cn1nnnc1NC(=O)c1ccc(C(F)(F)F)c(C(=O)NC2CC2)c1Br [Example 1-209]
80%: pest or weed control at 80 g/ha (ALOMY [2]) | pest or weed control at 80 g/ha (HORMU) | pest or weed control at 20 g/ha (MATIN [6]) | pest or weed control at 80 g/ha (PHBPU [7]) | pest or weed control at 20 g/ha (ALOMY [14]) | pest or weed control at 20 g/ha (LOLRI [17]) | pest or weed control at 20 g/ha (VERPE [21])
90%: pest or weed control at 80 g/ha (ECHCG [5]) | pest or weed control at 20 g/ha (SETVI [8]) | pest or weed control at 80 g/ha (STEME [9]) | pest or weed control at 20 g/ha (VERPE [10]) | pest or weed control at 5 g/ha (ABUTH [13]) | pest or weed control at 20 g/ha (ECHCG [16]) | pest or weed control at 20 g/ha (PHBPU [18]) | pest or weed control at 20 g/ha (STEME [20]) | pest or weed control at 20 g/ha (DIGSA [23])
100%: pest or weed control at 80 g/ha (ABUTH [1]) | pest or weed control at 20 g/ha (ABUTH [1]) | pest or weed control at 20 g/ha (AMARE [3]) | pest or weed control at 80 g/ha (AMARE [3]) | pest or weed control at 80 g/ha (AVEFA [4]) | pest or weed control at 80 g/ha (MATIN [6]) | pest or weed control at 80 g/ha (SETVI [8]) | pest or weed control at 80 g/ha (VERPE [10]) | pest or weed control at 80 g/ha (VIOTR [11]) | pest or weed control at 20 g/ha (DIGSA [12]) | pest or weed control at 80 g/ha (DIGSA [12]) | pest or weed control at 20 g/ha (ABUTH [13]) | pest or weed control at 20 g/ha (AMARE [15]) | pest or weed control at 5 g/ha (SETVI [19]) | pest or weed control at 20 g/ha (SETVI [19]) | pest or weed control at 5 g/ha (VIOTR [22]; 5 g/ha) | pest or weed control at 20 g/ha (VIOTR [22]; 20 g/ha)

CCCNC(=O)c1c(C(F)(F)F)ccc(C(=O)Nc2nnnn2CC)c1C [Example 2-32]
90%: pest or weed control at 20 g/ha (ALOMY [2]; [27]) | pest or weed control at 80 g/ha (AVEFA [4]) | pest or weed control at 20 g/ha (AVEFA [4]; [27]) | pest or weed control at 80 g/ha (LOLRI [24]) | pest or weed control at 80 g/ha (PHBPU [7]) | pest or weed control at 80 g/ha (POLCO) | pest or weed control at 20 g/ha (VERPE [10]) | pest or weed control at 5 g/ha (ABUTH [13]) | pest or weed control at 20 g/ha (ABUTH [13]) | pest or weed control at 5 g/ha (ALOMY [14]; dosage 5 g/ha) | pest or weed control at 5 g/ha (AVEFA [25]; 5 g/ha) | pest or weed control at 20 g/ha (ECHCG [16]) | pest or weed control at 5 g/ha (MATIN [26]; dosage 5 g/ha) | pest or weed control at 20 g/ha (MATIN [26]; dosage 20 g/ha) | pest or weed control at 20 g/ha (PHBPU [18]) | pest or weed control at 5 g/ha (VERPE [21]; 5 g/ha) | pest or weed control at 20 g/ha (VERPE [21]) | pest or weed control at 20 g/ha (DIGSA [23])
80%: pest or weed control at 5 g/ha (ECHCG [16]; dosage 5 g/ha) | pest or weed control at 20 g/ha (LOLRI [17]) | pest or weed control at 5 g/ha (PHBPU [18]; dosage 5 g/ha) | pest or weed control at 5 g/ha (SETVI [19])
100%: pest or weed control at 80 g/ha (ABUTH [1]) | pest or weed control at 20 g/ha (ABUTH [1]) | pest or weed control at 80 g/ha (ALOMY [2]) | pest or weed control at 20 g/ha (AMARE [3]) | pest or weed control at 80 g/ha (AMARE [3]) | pest or weed control at 80 g/ha (ECHCG [5]) | pest or weed control at 20 g/ha (MATIN [6]) | pest or weed control at 80 g/ha (MATIN [6]) | pest or weed control at 20 g/ha (SETVI [8]) | pest or weed control at 80 g/ha (SETVI [8]) | pest or weed control at 80 g/ha (VERPE [10]) | pest or weed control at 20 g/ha (VIOTR [11]; dosage 20 g/ha) | pest or weed control at 80 g/ha (VIOTR [11]) | pest or weed control at 20 g/ha (DIGSA [12]) | pest or weed control at 80 g/ha (DIGSA [12]) | pest or weed control at 20 g/ha (ALOMY [14]) | pest or weed control at 20 g/ha (AMARE [15]) | pest or weed control at 20 g/ha (AVEFA [25]; 20 g/ha) | pest or weed control at 20 g/ha (SETVI [19])
